Results reported in US8476266B2, “Phenylacetic acid compound” (Ono Pharmaceutical Co., Ltd., priority 2007, dated 2013).

Legend:
[1] = biological target: T1, DP receptor (Homo sapiens, UniProt Q13258); assay: Measurement of DP receptor antagonistic activity using human platelet-rich plasma (PRP); inhibition of PGD2-stimulated cAMP production; format: cell-based; conditions: for binding activity against the DP receptor compared with the non-substituted compound (Comparative compound 1): in words; for IC50: human PRP, 3 μmol/L PGD2 stimulation
T1 construct: Blood was collected from the cubital vein of a healthy adult; endogenous in cells; host or cells: human platelets (platelet-rich plasma of a healthy adult donor)
T1 sequence (Q13258 1-359): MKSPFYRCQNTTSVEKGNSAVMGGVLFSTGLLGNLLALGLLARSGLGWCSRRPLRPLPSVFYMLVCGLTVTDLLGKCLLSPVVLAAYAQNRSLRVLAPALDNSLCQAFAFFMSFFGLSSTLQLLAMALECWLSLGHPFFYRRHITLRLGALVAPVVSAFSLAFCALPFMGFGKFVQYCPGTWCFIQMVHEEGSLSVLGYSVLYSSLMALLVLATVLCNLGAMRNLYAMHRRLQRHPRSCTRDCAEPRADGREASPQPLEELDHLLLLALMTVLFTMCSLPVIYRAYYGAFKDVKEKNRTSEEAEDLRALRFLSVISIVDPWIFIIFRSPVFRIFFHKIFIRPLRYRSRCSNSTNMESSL
Protocol: The collected blood was subjected to centrifugal separation at 100 G, at room temperature for 15 minutes to obtain PRP in the upper layer. EDTA was added to the obtained PRP so that the final concentration thereof to be about 10 mmol/L. The PRP was subjected to centrifugal separation at 1500 G, at room temperature for 15 minutes to obtain supernatant platelet poor plasma (PPP). After the obtained platelet pellets were suspended, the suspension was diluted with PPP so that the platelet density to be adjusted to 5.0×10^5/μL. To the obtained platelet suspension, 3-isobutyl-1-methylxanthine and prostanoid EP3 receptor antagonist were added so that the final concentrations thereof to be 8 mmol/L and 1 μmol/L, respectively.
297 μL of the prepared PRP was dispensed to each test tube, followed by subjecting to incubation at 37° C. for 5 minutes. After adding 1.5 μL of DMSO or a variety of concentrations of the compound of the present invention, 10 minutes of incubation was carried out at 37° C. 1.5 μL, of DMSO or PGD2 (final concentration: 3 μmol/L) was added thereto to initiate the reaction. After 15 minutes of incubation was carried out at 37° C., […] of ice-cooled 10% trichloroacetic acid (TCA) was added thereto to terminate the reaction. The TCA-treated sample was subjected to centrifugal separation at 15,000 G for 3 minutes at 4° C. The concentration of thus obtained supernatant cAMP was measured by enzyme immunoassay using cAMP EIA system (Amersham plc). 300 μL of the supernatant obtained above was mixed with 600 μL, of a solution of 0.5 mol/L tri-n-octylamine in chloroform. After extracting TCA in the organic layer, the cAMP content in the water layer sample was measured according to the method described in cAMP assay kit.

[2] = biological target: T2, Human CYP3A4 (Homo sapiens, UniProt P08684); assay: Measurement of drug-metabolizing enzyme inhibitory activity (human CYP3A4 inhibitory effect), CYP3A4 expression system microsome, 7-BQ substrate; format: in vitro ADME; conditions: 7-benzyloxyquinoline substrate, 37° C., 30 minutes
T2 construct: purchased BD Gentest
Protocol: A solution of the test compound having a concentration five hundred times more than the evaluation concentration in ethanol, or ethanol was 125-fold diluted by water. 50 μL of the test compound solution or the ethanol solution (control) was added with CYP3A4 substrate (7-benzyloxyquinoline (7-BQ), 40 μmol/L), magnesium chloride solution (5 mmol/L), and 100 μL, of 200 mM potassium phosphate buffer solution (pH 7.4) containing CYP3A4 expression system microsome (BD Gentest, 0.25 mg/mL), and preincubated at 37° C. for 10 minutes, then added with 50 μL, of reduced nicotinamide adenine dinucleotide phosphate (NADPH, final concentration 1 mmol/L) and incubated at 37° C. for 30 minutes. Immediately after the addition of NADPH, and after incubation, the fluorescence intensity was measured for 7-hydroxyquinoline which is a metabolite of the substrate (excitation wavelength 409 nm, emission wavelength 530 nm). The inhibition ratio against the control was calculated by the equation below. Inhibition rate(%)=[1-{(fluorescence intensity of the test compound after incubation−fluorescence intensity of the test compound immediately after addition of NADPH)/(fluorescence intensity of control after incubation−fluorescence intensity of control immediately after the addition of NADPH)}]×100.
IC50 was calculated from the equation below. IC50(μmol/L)=(50−(D×A−C×B)/(D−C))/((B−A)/(D−C)) • A: Highest inhibition rate (%) which is less than 50%. • B: Lowest inhibition rate (%) which is more than 50%. • C: Concentration (μmol/L) of the test compound when the inhibition rate is A. • D: Concentration (μmol/L) of the test compound when the inhibition rate is B.

[3] = biological target: T3, prostanoid receptor subtype (human EP2) (Homo sapiens, UniProt P43116); assay: Receptor binding experiment using prostanoid receptor subtype expressing cell (3H-PGE2, CHO cell membrane); conditions: 3H-PGE2 2.5 nM, read-out: Ki, EP2 receptor binding (3H-PGE2 binding inhibition)
T3 construct: expressed in transfected cells; host or cells: CHO cells
Protocol: According to the method of Sugimoto et. al. (J. Biol. Chem. 267, 6463-6466 (1992)), CHO cells in which prostanoid receptor subtype (human EP2) was expressed were prepared to obtain membrane preparation.
A reaction solution (200 μl) containing membrane fraction preparation (0.5 mg/ml) and ^3H-PGE2 was incubated at room temperature for one hour. The reaction was terminated by ice-cooled buffer (3 ml), bound ^3H-PGE2 was trapped on a glass filter (GF/B) by suction filtration at reduced pressure, and bound radioactivity was measured by a liquid scintillator.
The Kd value was calculated from Scatchard plots [Ann. N.Y. Acad. Sci. 51, 660 (1949)]. Nonspecific binding was determined as a bond in the presence of excessive amount (10 μM) of unlabeled PGE2. The measurement of ^3H-PGE2 binding inhibitory effect by the compound of the present invention was carried out by adding ^3H-PGE2 (2.5 nM) and the compound of the present invention at a variety of concentrations. Note that all reactions used the following buffer.
Buffer: potassium phosphate (10 mM, pH 6.0), EDTA (1 mM), MgCl2 (10 mM), NaCl (0.1 M).
Dissociation constant (Ki (μM)) of each compound was calculated from the following equation. Ki=IC50/(1+([C]/Kd) • IC50: Concentration of the compound of the present invention required for 50%-inhibition of [3H]PGE2 specific bond • C: Concentration of [3H]PGE2 • Kd: Dissociation constant of [3H]PGE2

T2 sequence (P08684 whole entry): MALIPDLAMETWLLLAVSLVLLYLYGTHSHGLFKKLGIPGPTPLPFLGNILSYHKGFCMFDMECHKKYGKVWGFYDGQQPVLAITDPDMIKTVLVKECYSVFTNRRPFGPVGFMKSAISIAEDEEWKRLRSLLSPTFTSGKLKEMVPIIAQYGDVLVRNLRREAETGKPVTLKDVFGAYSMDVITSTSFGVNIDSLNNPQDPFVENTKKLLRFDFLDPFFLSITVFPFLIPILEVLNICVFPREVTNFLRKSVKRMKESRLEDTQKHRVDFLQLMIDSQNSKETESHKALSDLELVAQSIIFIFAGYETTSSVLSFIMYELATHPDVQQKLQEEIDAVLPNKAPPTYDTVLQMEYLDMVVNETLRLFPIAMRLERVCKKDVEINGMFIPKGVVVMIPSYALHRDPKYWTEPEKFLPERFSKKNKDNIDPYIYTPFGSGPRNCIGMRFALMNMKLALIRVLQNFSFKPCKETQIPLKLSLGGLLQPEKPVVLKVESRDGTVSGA
T3 sequence (P43116 whole entry): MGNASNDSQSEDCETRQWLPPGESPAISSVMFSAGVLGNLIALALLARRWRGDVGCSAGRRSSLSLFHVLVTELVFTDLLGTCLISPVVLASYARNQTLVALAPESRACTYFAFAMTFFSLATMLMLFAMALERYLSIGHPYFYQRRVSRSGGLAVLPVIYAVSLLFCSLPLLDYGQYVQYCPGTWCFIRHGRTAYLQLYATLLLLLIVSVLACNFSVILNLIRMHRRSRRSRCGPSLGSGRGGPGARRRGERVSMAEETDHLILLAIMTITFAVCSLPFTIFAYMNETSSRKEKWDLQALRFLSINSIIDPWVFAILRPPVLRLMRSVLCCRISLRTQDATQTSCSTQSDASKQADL

Row | SMILES | IC50 [2] | IC50 [1] | Ki [3] | binding activity against the DP receptor compared with the non-substituted compound (Comparative compound 1) [1]
1 | Cc1cc(OC[C@@H]2CN(C)c3ccccc3O2)cc(C)c1C(=O)Nc1cc(C2(C(=O)O)CC2)ccc1Cl [Comparative compound 4, 1-(4-chloro-3-((2,6-dimethyl-4-(((2S)-4-methyl-3,4-dihydro-2H-1,4-benzoxazin-2-yl)methoxy)benzoyl)amino)phenyl)cyclopropanecarboxylic acid] | ≥ 30 µM | 0.0065 µM | 0.0018 µM | more increased binding activity
2 | CCc1cc(OC[C@@H]2CN(C)c3ccccc3O2)cc(C)c1C(=O)Nc1cc(C2(C(=O)O)CC2)ccc1C(F)(F)F [Example 21, 1-(3-((2-ethyl-6-methyl-4-(((2S)-4-methyl-3,4-dihydro-2H-1,4-benzoxazin-2-yl)methoxy)benzoyl)amino)-4-(trifluoromethyl)phenyl)cyclopropanecarboxylic acid] | ≥ 30 µM | 0.0029 µM |  | 
3 | Cc1cc(OC[C@@H]2CN(C)c3ccccc3O2)cc(C)c1C(=O)Nc1cc(C2(C(=O)O)CC2)ccc1C(F)(F)F [Example 12, 1-(3-((2,6-dimethyl-4-(((2S)-4-methyl-3,4-dihydro-2H-1,4-benzoxazin-2-yl)methoxy)benzoyl)amino)-4-(trifluoromethyl)phenyl)cyclopropanecarboxylic acid] | ≥ 30 µM | 0.0071 µM | 0.142 µM | 

Further lines, with some results ahead:

Row | IC50 [2] | IC50 [1] | Ki [3] | SMILES | binding activity against the DP receptor compared with the non-substituted compound (Comparative compound 1) [1]
4 | < 3 µM |  |  | Cc1ccc(CC(=O)O)cc1NC(=O)c1c(C)cc(OC[C@@H]2CN(C)c3ccccc3O2)cc1C [Comparative compound 2, (3-((2,6-dimethyl-4-(((2S)-4-methyl-3,4-dihydro-2H-1,4-benzoxazin-2-yl)methoxy)benzoyl)amino)-4-methylphenyl)acetic acid] | more increased binding activity
5 | ≥ 30 µM | 0.021 µM | 0.0936 µM | Cc1cc(OC[C@@H]2CN(C)c3ccccc3O2)cc(C)c1C(=O)Nc1cccc(CC(=O)O)c1 [Comparative compound 1, (3-((2,6-dimethyl-4-(((2S)-4-methyl-3,4-dihydro-2H-1,4-benzoxazin-2-yl)methoxy)benzoyl)amino)phenyl)acetic acid] | 
6 | 8.4 µM | 0.0089 µM |  | Cc1cc(OC[C@@H]2CN(C)c3ccccc3O2)cc(C)c1C(=O)Nc1cc(CC(=O)O)ccc1C(F)(F)F [Example 24, (3-((2,6-dimethyl-4-(((2S)-4-methyl-3,4-dihydro-2H-1,4-benzoxazin-2-yl)methoxy)benzoyl)amino)-4-(trifluoromethyl)phenyl)acetic acid] | 
7 | 19.7 µM | 0.004 µM | 0.0168 µM | Cc1cc(OC[C@@H]2CN(C)c3ccccc3O2)cc(C)c1C(=O)Nc1cc(CC(=O)O)ccc1Cl [Comparative compound 3, (4-chloro-3-((2,6-dimethyl-4-(((2S)-4-methyl-3,4-dihydro-2H-1,4-benzoxazin-2-yl)methoxy)benzoyl)amino)phenyl)acetic acid] | 
